Several values for one entry are separate records, joined by “and”; a condition that tells them apart may be missing. Equal entries are not always repeated.
These compounds were tested against mTOR/GbL/Raptor (mTORC1) (Homo sapiens, UniProt P42345) (assay: mTOR/GbL/Raptor (mTORC1) ELISA assay). Conditions: phosphorylation of 4E-BP1; 0.2 nM mTORC1, 10 μM ATP; read-out: IC50 in this assay (mTORC1 ELISA).
Assay type: biochemical
In short: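 ELISA read-out: phospho-4E-BP1 captured on Ni-chelate plates and detected with anti-phospho antibody plus HRP-anti-IgG luminescence. The kinase step ran 120 min at ambient temperature with 0.2 nM human mTORC1, 10 µM ATP, 50 nM His-4E-BP1, 10 mM MnCl2, pH 7.2 HEPES.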

`Cc1nc2ncc(-c3ccc4c(c3)CN(c3nc(CNCCF)nc5c3CC(C)(C)CC5)CCO4)cc2[nH]1` [Example 593, N-({6,6-dimethyl-4-[7-(2-methyl-1H-imidazo[4,5-b]pyridin-6-yl)-2,3-dihydro-1,4-benzoxazepin-4(5H)-yl]-5,6,7,8-tetrahydroquinazolin-2-yl}methyl)-2-fluoroethanamine] and `CCNCc1nc2c(c(N3CCOc4ccc(-c5cnc6nc(C)[nH]c6c5)cc4C3)n1)CC(C)(C)CC2` [Example 600, N-({6,6-dimethyl-4-[7-(2-methyl-1H-imidazo[4,5-b]pyridin-6-yl)-2,3-dihydro-1,4-benzoxazepin-4(5H)-yl]-5,6,7,8-tetrahydroquinazolin-2-yl}methyl)ethanamine] cannot be ordered by IC50: ≤ 10 nM for the first, ≤ 10 nM for the second.

`Cc1nc2ncc(-c3ccc4c(c3)CN(c3nc(CNCC(C)C)nc5c3CC(C)(C)CC5)CCO4)cc2[nH]1` [Example 594, N-({6,6-dimethyl-4-[7-(2-methyl-1H-imidazo[4,5-b]pyridin-6-yl)-2,3-dihydro-1,4-benzoxazepin-4(5H)-yl]-5,6,7,8-tetrahydroquinazolin-2-yl}methyl)-2-methylpropan-1-amine] and `Cc1nc2ncc(-c3ccc4c(c3)CN(c3nc(CNC(C)C)nc5c3CC(C)(C)CC5)CCO4)cc2[nH]1` [Example 607, N-({6,6-dimethyl-4-[7-(2-methyl-1H-imidazo[4,5-b]pyridin-6-yl)-2,3-dihydro-1,4-benzoxazepin-4(5H)-yl]-5,6,7,8-tetrahydroquinazolin-2-yl}methyl)propan-2-amine] cannot be ordered by IC50: 10 to 50 nM for the first, ≤ 10 nM for the second.

`Cc1nc2ncc(-c3ccc4c(c3)CN(c3nc(CNC(C)(C)C)nc5c3CC(C)(C)CC5)CCO4)cc2[nH]1` [Example 595, N-({6,6-dimethyl-4-[7-(2-methyl-1H-imidazo[4,5-b]pyridin-6-yl)-2,3-dihydro-1,4-benzoxazepin-4(5H)-yl]-5,6,7,8-tetrahydroquinazolin-2-yl}methyl)-2-methylpropan-2-amine] and `Cc1nc2ncc(-c3ccc4c(c3)CN(c3nc(CNS(C)(=O)=O)nc5c3CC(C)(C)CC5)CCO4)cc2[nH]1` [Example 601, N-({6,6-dimethyl-4-[7-(2-methyl-1H-imidazo[4,5-b]pyridin-6-yl)-2,3-dihydro-1,4-benzoxazepin-4(5H)-yl]-5,6,7,8-tetrahydroquinazolin-2-yl)methyl)methanesulfonamide] cannot be ordered by IC50: 10 to 50 nM for the first, ≤ 10 nM for the second.

`Cc1nc2ncc(-c3ccc4c(c3)CN(c3nc(CN[C@@H](C)C(=O)O)nc5c3CC(C)(C)CC5)CCO4)cc2[nH]1` [Example 596, N-({6,6-dimethyl-4-[7-(2-methyl-1H-imidazo[4,5-b]pyridin-6-yl)-2,3-dihydro-1,4-benzoxazepin-4(5H)-yl]-5,6,7,8-tetrahydroquinazolin-2-yl}methyl)alanine] and `Cc1nc2ncc(-c3ccc4c(c3)CN(c3nc(CNC5CC5)nc5c3CC(C)(C)CC5)CCO4)cc2[nH]1` [Example 599, N-({6,6-dimethyl-4-[7-(2-methyl-1H-imidazo[4,5-b]pyridin-6-yl)-2,3-dihydro-1,4-benzoxazepin-4(5H)-yl]-5,6,7,8-tetrahydroquinazolin-2-yl}methyl)cyclopropanamine] cannot be ordered by IC50: ≤ 10 nM for the first, ≤ 10 nM for the second.

`Cc1nc2ncc(-c3ccc4c(c3)CN(c3nc(CNC5CCC5)nc5c3CC(C)(C)CC5)CCO4)cc2[nH]1` [Example 597, N-({6,6-dimethyl-4-[7-(2-methyl-1H-imidazo[4,5-b]pyridin-6-yl)-2,3-dihydro-1,4-benzoxazepin-4(5H)-yl]-5,6,7,8-tetrahydroquinazolin-2-yl}methyl)cyclobutanamine] and `Cc1nc2ncc(-c3ccc4c(c3)CN(c3nc(CNC5CCCC5)nc5c3CC(C)(C)CC5)CCO4)cc2[nH]1` [Example 598, N-({6,6-dimethyl-4-[7-(2-methyl-1H-imidazo[4,5-b]pyridin-6-yl)-2,3-dihydro-1,4-benzoxazepin-4(5H)-yl]-5,6,7,8-tetrahydroquinazolin-2-yl}methyl)cyclopentanamine] cannot be ordered by IC50: ≤ 10 nM for the first, ≤ 10 nM for the second.

`CCN(CC)Cc1nc2c(c(N3CCOc4ccc(-c5cnc6nc(C)[nH]c6c5)cc4C3)n1)CC(C)(C)CC2` [Example 602, N-({6,6-dimethyl-4-[7-(2-methyl-1H-imidazo[4,5-b]pyridin-6-yl)-2,3-dihydro-1,4-benzoxazepin-4(5H)-yl]-5,6,7,8-tetrahydroquinazolin-2-yl}methyl)-N-ethylethanamine] and `CCN(C)Cc1nc2c(c(N3CCOc4ccc(-c5cnc6nc(C)[nH]c6c5)cc4C3)n1)CC(C)(C)CC2` [Example 605, N-({6,6-dimethyl-4-[7-(2-methyl-1H-imidazo[4,5-b]pyridin-6-yl)-2,3-dihydro-1,4-benzoxazepin-4(5H)-yl]-5,6,7,8-tetrahydroquinazolin-2-yl}methyl)-N-methylethanamine] cannot be ordered by IC50: 10 to 50 nM for the first, ≤ 10 nM for the second.

First: CCN(Cc1nc2c(c(N3CCOc4ccc(-c5cnc6nc(C)[nH]c6c5)cc4C3)n1)CC(C)(C)CC2)C(C)C [Example 603, N-({6,6-dimethyl-4-[7-(2-methyl-1H-imidazo[4,5-b]pyridin-6-yl)-2,3-dihydro-1,4-benzoxazepin-4(5H)-yl]-5,6,7,8-tetrahydroquinazolin-2-yl}methyl)-N-ethylpropan-2-amine]
Second: Cc1nc2ncc(-c3ccc4c(c3)CN(c3nc(CN(C)C(C)C)nc5c3CC(C)(C)CC5)CCO4)cc2[nH]1 [Example 606, N-({6,6-dimethyl-4-[7-(2-methyl-1H-imidazo[4,5-b]pyridin-6-yl)-2,3-dihydro-1,4-benzoxazepin-4(5H)-yl]-5,6,7,8-tetrahydroquinazolin-2-yl}methyl)-N-methylpropan-2-amine]
The IC50 of the first is higher: 50 to 250 nM for the first, 10 to 50 nM for the second. The second is the more potent here.

First: Cc1nc2ncc(-c3ccc4c(c3)CN(c3nc(CN(C)C5CC5)nc5c3CC(C)(C)CC5)CCO4)cc2[nH]1 [Example 604, N-({6,6-dimethyl-4-[7-(2-methyl-1H-imidazo[4,5-b]pyridin-6-yl)-2,3-dihydro-1,4-benzoxazepin-4(5H)-yl]-5,6,7,8-tetrahydroquinazolin-2-yl}methyl)-N-methylcyclopropanamaine]
Second: CN(C)Cc1nc2c(c(N3CCOc4ccc(-c5cnc(Cl)c(NS(C)(=O)=O)c5)cc4C3)n1)CC(C)(C)CC2 [Example 616, N-[2-chloro-5-(4-{2-[(dimethylamino)methyl]-6,6-dimethyl-5,6,7,8-tetrahydroquinazolin-4-yl}-2,3,4,5-tetrahydro-1,4-benzoxazepin-7-yl)puyridin-3-yl]methanesulfonamide]
The IC50 of the first is lower: 10 to 50 nM for the first, 50 to 250 nM for the second.

First: COc1ccc2c(N3CCOc4ccc(-c5cnc(Cl)c(NS(C)(=O)=O)c5)cc4C3)ncnc2c1 [Example 608, N-(2-chloro-5-{4-[7-(methyloxy)quinazolin-4-yl]-2,3,4,5-tetrahydro-1,4-benzoxazepin-7-yl}pyridin-3-yl)methanesulfonamide]
Second: CC1(C)CCc2ncnc(N3CCOc4ccc(-c5ccc(Cl)c(NS(C)(=O)=O)c5)cc4C3)c2C1 [Example 621]
The IC50 of the first is lower: 10 to 50 nM for the first, 250 to 1000 nM for the second.

First: COc1ccc2c(N3CCOc4ccc(-c5ccc(NC(C)=O)cc5)cc4C3)nc(C)nc2c1 [Example 609, N-(4-{4-[2-methyl-7-(methyloxy)quinazolin-4-yl]-2,3,4,5-tetrahydro-1,4-benzoxazepin-7-yl}phenyl)acetamide]
Second: COc1ccc2c(N3CCOc4ccc(-c5cnc6sc(NC(C)=O)nc6c5)cc4C3)nc(CN(C)C)nc2c1 [Example 618, N-[6-(4-{2-[(dimethylamino)methyl]-7-(methyloxy)quinazolin-4-yl}-2,3,4,5-tetrahydro-1,4-benzoxazepin-7-yl)[1,3]thiazolo[5,4-b]pyridin-2-yl]acetamide]
The IC50 of the first is higher: ≥ 2000 nM for the first, 250 to 1000 nM for the second.

`CNc1ncnc(N2CCOc3ccc(-c4cnc5nc(C)[nH]c5c4)cc3C2)c1C` [Example 610, N,5-dimethyl-6-[7-(2-methyl-1H-imidazo[4,5-b]pyridin-6-yl)-2,3-dihydro-1,4-benzoxazepin-4(5H)-yl]pyrimidin-4-amine] and `COc1ccc2c(N3CCOc4ccc(-c5cnc6nc(C)[nH]c6c5)cc4C3)nc(CN(C)C)nc2c1` [Example 613, N,N-dimethyl-1-{4-[7-(2-methyl-1H-imidazo[4,5-b]pyridin-6-yl)-2,3-dihydro-1,4-benzoxazepin-4(5H)-yl]-7-(methyloxy)quinazolin-2-yl}methanamine] fall in the same range of IC50: 250 to 1000 nM for the first, 250 to 1000 nM for the second.

First: Cc1nc2cc(-c3ccc4c(c3)CN(c3nc(CN(C)C)ncc3C(C)C)CCO4)ccc2[nH]1 [Example 612, N,N-dimethyl-1-{4-[7-(2-methyl-1H-benzimidazol-5-yl)-2,3-dihydro-1,4-benzoxazepin-4(5H)-yl]-5-(1-methylethyl)pyrimidin-2-yl}methanamine]
Second: Cc1nc2cc(-c3ccc4c(c3)CN(c3nc(CN(C)C)nc(C)c3C(C)C)CCO4)cnc2[nH]1 [Example 614, N,N-dimethyl-1-{4-methyl-5-(1-methylethyl)-6-[7-(2-methyl-3H-imidazo[4,5-b]pyridin-6-yl)-2,3-dihydro-1,4-benzoxazepin-4(5H)-yl]pyrimidin-2-yl}methanamine]
The IC50 of the first is higher: 50 to 250 nM for the first, 10 to 50 nM for the second. The second is the more potent here.

Compared with `CN(C)c1ncc(-c2ccc3c(c2)CN(c2ncnc4c2CC(C)(C)CC4)CCO3)cc1NS(C)(=O)=O` [Example 619, N-{2-(dimethylamino)-5-[4-(6,6-dimethyl-5,6,7,8-tetrahydroquinazolin-4-yl)-2,3,4,5-tetrahydro-1,4-benzoxazepin-7-yl]pyridin-3-yl}methanesulfonamide], `CC1(C)CCc2ncnc(N3CCOc4ccc(-c5cnc(N)c(NS(C)(=O)=O)c5)cc4C3)c2C1` [Example 620, N-{2-amino-5-[4-(6,6-dimethyl-5,6,7,8-tetrahydroquinazolin-4-yl)-2,3,4,5-tetrahydro-1,4-benzoxazepin-7-yl]pyridin-3-yl}methanesulfonamide] is higher in IC50: 10 to 50 nM for the first, 50 to 250 nM for the second. The first is the more potent here.

`CC(=O)Nc1nc2cc(-c3ccc4c(c3)CN(c3nc(CN(C)C)nc5c3CC(C)(C)CC5)CCO4)cnc2s1` [Example 617, N-[6-(4-{2-[(dimethylamino)methyl]-6,6-dimethyl-5,6,7,8-tetrahydroquinazolin-4-yl}-2,3,4,5-tetrahydro-1,4-benzoxazepin-7-yl)[1,3]thiazolo[5,4-b]pyridin-2-yl]acetamide] was tested, and the IC50 was 10 to 50 nM and 50 to 250 nM.

— patent publication US8648066B2 (Exelixis, Inc., priority 2009, dated 2014)
